These results are taken from US10287267B2, “Isoquinolin-3-yl carboxamides and preparation and use thereof” (Samumed, LLC, priority 2016, dated 2019).

Assay [1] relates to SW480 colon carcinoma cells. Put plainly: Cell viability assay (CellTiter-Glo). The format is cell-based, human. The note with it: Homo sapiens; for EC50: 96 h, SW480 cells, CellTiter-Glo, four days incubation; for inhibition at 10 µM: SW480, read-out: percent inhibition at 10 μM. Background: Cellular ATP, detected with luciferase, serves as a proxy for viable cell number.
In assay [2] the test system is Tau phosphorylation at Ser396 (pSer396). Put plainly: Tau phosphorylation assay (pSer396 ELISA / western blot) in SH-SY5Y cells.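 Further: EC50 for reduction of Tau pSer396 in lysed cells, measured by colorimetric ELISA or chemiluminescent western blot, both using the same pSer396 antibody.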 The format is cell-based, human. The note with it: Homo sapiens; SH-SY5Y cells, overnight (16-18 h) exposure; read-out: pSer396 Tau EC50. On the technique in general: An ELISA detects its analyte on a solid surface through an enzyme-linked reagent.
Experimental: Two days before treatment, cells were seeded onto 96 well plates at 5×10^4 cells/well.
Wells were visually checked for cell death or change in morphology and supernatants were tested for cytotoxicity by measurement of lactate dehydrogenase release (LDH, CytoToxOne kit, Promega) if necessary.
Cells were lysed with RIPA buffer complemented with phosphatase and protease inhibitors then lysates were spun down at 12,000 g for 10 min to remove any cellular debris. Lysates are then either directly tested for pSer396 by ELISA (Life Technology, Kit KHB7031) or loaded on NuPage Bis-Tris gels for western blot analysis. Colorimetric detection of ELISA signal is performed by Cytation3 plate reader (Biotek) and the chemiluminescence signal for HRP-linked antibodies used in western blotting is detected using a Carestream Image Station. The same pSer396 antibody is used for detection of pTau in both assays.

In the next assay the test system is IL-6. The experiment in a line: IL-6 inhibition in LPS-stimulated human peripheral blood mononuclear cells (HTRF).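 On all read-outs here: IL-6 detected by HTRF with an XL665- and Cryptate-labelled anti-IL-6 antibody pair, samples run in duplicate, EC50 obtained from a four-parameter Levenberg-Marquardt curve fit.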 The format is cell-based. To be noted: Homo sapiens, PBMC; for inhibition at 10 µM: read-out: percent value in parentheses beside EC50 >10 μM; for EC50: Table 9, huPBMCs, LPS 50 ng/mL, 22 hours, dose-response starting from 10 μM. In general terms: In TR-FRET formats the signal depends on donor and acceptor labels being close together.

Assay [3] deals with recombinant DYRK1A kinase (Homo sapiens (Human), UniProt Q13627). The experiment in a line: DYRK1A kinase assay (Ser/Thr 18 peptide Z-lyte FRET).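 Further: Read-out is the coumarin to fluorescein emission ratio, referenced to unphosphorylated (0%) and phosphorylated (100%) Ser/Thr 18 peptide controls, values from dose-response curves by non-linear regression.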 Type of assay: biochemical. To be noted: 30 μM ATP, 1 h room temperature.
The next assay concerns the target recombinant GSK3β kinase (Homo sapiens (Human), UniProt P49841). Put plainly: GSK3β kinase assay (Ser/Thr 09 peptide Z-lyte FRET).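 Further: kinase activity read as coumarin to fluorescein emission ratio, 11-point threefold dilutions from 10 µM to 0.0003 µM in duplicate, unphosphorylated and phosphorylated peptide as 0% and 100% controls.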 The format is biochemical. The note with it: 46 μM ATP, 1 h room temperature.
Assay [4] deals with Wnt pathway (Sp5-Luc reporter, TCF/LEF binding sites) in SW480 colon carcinoma cells. Put plainly: Screening assay for Wnt activity: Sp5-Luc reporter gene assay.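 On all read-outs here: firefly luciferase luminescence read in stably transduced SW480 cells carrying the Sp5 promoter reporter with eight TCF/LEF sites, compounds given in 0.1% DMSO final.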 To be noted: Homo sapiens; for EC50: Sp5-Luc reporter, SW480 cells, 36 to 48 hours. The format is cell-based, human.
Experimental: The screening assay for Wnt activity is described as follows.
Following incubation, 15 μl of BriteLite Plus luminescence reagent (Perkin Elmer) was added to each well of the 384-well assay plates. The plates were placed on an orbital shaker for 2 min and then luminescence was quantified using the Envision (Perkin Elmer) plate reader.
Assay [5] relates to α-smooth muscle actin (αSMA) positive LL29 cells. The experiment in a line: Inhibition of fibrotic process: αSMA in TGF-β1 treated primary human fibroblasts from IPF patients.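 On all read-outs here: controls were TGF-β1 stimulated wells with DMSO vehicle (positive) and cells given DMSO alone (negative), cultured in F12 medium with 1% fetal bovine serum.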 The format is cell-based. To be noted: Homo sapiens, Fibroblast; for EC50: 96 h, Table 8, LL29 fibroblasts from IPF patients, TGF-β1 20 ng/mL, 4 days, dose-response 10 μM to 0.94 nM; for inhibition at 10 µM: read-out: percent value in parentheses beside EC50 >10 μM.

Each structure is given as a SMILES string.

In general, EC50 refers to the concentration at which the effect is half-maximal.

Chain of recombinant GSK3β kinase (P49841 whole entry): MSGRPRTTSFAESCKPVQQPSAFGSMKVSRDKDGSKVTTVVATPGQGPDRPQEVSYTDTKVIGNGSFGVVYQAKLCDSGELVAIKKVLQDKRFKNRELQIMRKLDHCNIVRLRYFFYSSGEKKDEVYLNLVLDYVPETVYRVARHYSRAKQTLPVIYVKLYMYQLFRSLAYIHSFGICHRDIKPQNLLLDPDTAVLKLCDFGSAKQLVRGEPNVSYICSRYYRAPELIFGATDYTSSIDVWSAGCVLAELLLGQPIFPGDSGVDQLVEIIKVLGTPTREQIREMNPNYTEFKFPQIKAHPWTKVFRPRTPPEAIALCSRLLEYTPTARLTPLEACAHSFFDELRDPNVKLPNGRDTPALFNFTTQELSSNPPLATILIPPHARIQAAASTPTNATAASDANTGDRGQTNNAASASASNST
Experimental for IL-6: After 22 hour incubation, a mixture of anti-IL6 XL665 and anti-IL-6 Cryptate diluted in reconstitution buffer (Catalog #62IL6PEC, Cisbio Inc., Bedford, Mass.) was added to each well. […] All samples were processed in duplicate. […] EC50 was determined using software generated by Dotmatics Limited (Windhill Bishops Stortford Herts, UK) using the Levenberg-Marquardt 4 parameter fitting procedure with finite different gradients.

For the compound `Cc1nnc(-c2ccc3cnc(NC(=O)CN4CCN(C)CC4)cc3c2)s1` [Compound 946, N-(6-(5-Methyl-1,3,4-thiadiazol-2-yl)isoquinolin-3-yl)-2-(4-methylpiperazin-1-yl)acetamide], the EC50 was > 10000 nM in assay [1]; 571 nM in assay [2]; > 10000 nM with IL-6; 23 nM in assay [3]; 38 nM on recombinant GSK3β kinase; 1880 nM in assay [4]. The compound also displayed an EC50 in assay [5] of 970 nM. Also, the inhibition at 10 µM in assay [1] is 42.6%; in the assay on IL-6 it was 18.2%.
Consider `Cc1nnc(-c2ccc3cnc(NC(=O)CN4CCOCC4)cc3c2)s1` [Compound 952, N-(6-(5-Methyl-1,3,4-thiadiazol-2-yl)isoquinolin-3-yl)-2-morpholinoacetamide], for which the EC50 was 7090 nM in assay [1]; 269 nM in assay [2]; > 10000 nM with IL-6; 7.2 nM in assay [3]; 8 nM at recombinant GSK3β kinase; 1470 nM in assay [4]. For the same compound, the EC50 in assay [5] is 741 nM. In addition, the inhibition at 10 µM in the assay with IL-6 was determined as 10.1%.
For the compound `Cc1nnc(-c2ccc3cnc(NC(=O)CN4C[C@H]5C[C@@H]4CO5)cc3c2)s1` [Compound 960, 2-((1R,4R)-2-Oxa-5-azabicyclo[2.2.1]heptan-5-yl)-N-(6-(5-methyl-1,3,4-thiadiazol-2-yl)isoquinolin-3-yl)acetamide], the EC50 was 6670 nM in assay [1]; 233 nM in assay [2]; > 10000 nM in the assay on IL-6; 17.1 nM in assay [3]; 15 nM at recombinant GSK3β kinase; 1660 nM in assay [4]. Further, the midpoint of the response in assay [5], the EC50, lay at 957 nM. The inhibition at 10 µM in the assay with IL-6 worked out at 8.2%.
Regarding `Cc1nnc(-c2cc(F)c3cnc(NC(=O)CN4CCOCC4)cc3c2)s1` [Compound 963, N-(8-Fluoro-6-(5-methyl-1,3,4-thiadiazol-2-yl)isoquinolin-3-yl)-2-morpholinoacetamide], the EC50 is > 10000 nM in assay [1]; 252 nM in assay [2]; > 10000 nM with IL-6; 26.7 nM in assay [3]; 6 nM on recombinant GSK3β kinase; 1200 nM in assay [4]. Also, in assay [5], it took 1190 nM to reach a half-maximal effect (EC50). Further, the results for the inhibition at 10 µM (in assay [1]; with IL-6) were 49.2% and 8.2%, respectively.
Consider `Cn1cc(-c2ccc3cnc(NC(=O)C4CCN(S(=O)(=O)c5ccccc5)CC4)cc3c2)cn1` [Compound 964, N-(6-(1-Methyl-1H-pyrazol-4-yl)isoquinolin-3-yl)-1-(phenylsulfonyl) piperidine-4-carboxamide], for which the EC50 in assay [1] was 3830 nM; in assay [2] it was 576 nM; in the assay on IL-6 it was > 10000 nM; in assay [3], 5.2 nM; on recombinant GSK3β kinase it was 102 nM; in assay [4], 1450 nM. In assay [5], the EC50 was > 10000 nM. The values for the inhibition at 10 µM (in the assay with IL-6; in assay [5]) were 6.8% and 19.7%, respectively.
`[2H]C([2H])([2H])N1CCN(CC(=O)Nc2cc3cc(-c4cnn(C)c4)ccc3cn2)CC1` [Compound 965, N-(6-(1-Methyl-1H-pyrazol-4-yl)isoquinolin-3-yl)-2-(4-(methyl-d3)piperazin-1-yl)acetamide]: the half-maximal effective concentration (EC50) in assay [1] is 8630 nM; in assay [2], 1000 nM; in the assay with IL-6 it was 3260 nM; in assay [3], 10.6 nM; at recombinant GSK3β kinase, 79 nM; in assay [4], 3180 nM. Further, the EC50 in assay [5] worked out at 1370 nM.
`CCN1CCC(C(=O)Nc2cc3cc(-c4cnn(C)c4)c(F)cc3cn2)CC1` [Compound 967, 1-Ethyl-N-(7-fluoro-6-(1-methyl-1H-pyrazol-4-yl)isoquinolin-3-yl) piperidine-4-carboxamide]: the EC50 in assay [1] came to 459 nM; in assay [2] it was 373 nM; in the assay with IL-6 it was 1130 nM; in assay [3] it was 1.9 nM; on recombinant GSK3β kinase, 46 nM; in assay [4], 4420 nM. This compound returned an EC50 in assay [5] of 79 nM.
Take `CN1CCN(CC(=O)Nc2cc3cc(-c4cnn(C)c4)cc(F)c3cn2)CC1` [Compound 968, N-(8-Fluoro-6-(1-methyl-1H-pyrazol-4-yl)isoquinolin-3-yl)-2-(4-methylpiperazin-1-yl)acetamide]: the EC50 is > 10000 nM in assay [1]; 2700 nM in assay [2]; 9240 nM in the assay with IL-6; 31.4 nM in assay [3]; 61 nM at recombinant GSK3β kinase; > 10000 nM in assay [4]. Moreover, the EC50 in assay [5] was > 10000 nM. For the same compound, the inhibition at 10 µM in assay [1] amounted to 14.5%; in assay [4] (SW480, read-out: percent inhibition at 10 μM), 38%; in assay [5], 24.1%.
Regarding `CN1CCC(C(=O)Nc2cc3cc(-c4cnsc4)ccc3cn2)CC1` [Compound 970, N-(6-(Isothiazol-4-yl)isoquinolin-3-yl)-1-methylpiperidine-4-carboxamide], the EC50 in assay [1] stood at 1260 nM; in assay [2] it was 862 nM; with IL-6, 1130 nM; in assay [3] it was 2.3 nM; on recombinant GSK3β kinase it was 478 nM; in assay [4], 1360 nM. Besides, the EC50 in assay [5] is 1240 nM.
For the compound `[2H]C([2H])([2H])n1cc(-c2ccc3cnc(NC(=O)[C@H](C)N4CCCC4)cc3c2)cn1` [Compound 971, (S)—N-(6-(1-(methyl-d3)-1H-pyrazol-4-yl)isoquinolin-3-yl)-2-(pyrrolidin-1-yl)propanamide], the EC50 worked out at 1200 nM in assay [1]; 191 nM in assay [2]; 1220 nM with IL-6; 34.2 nM in assay [3]; 34 nM on recombinant GSK3β kinase; 720 nM in assay [4]. In assay [5], this compound showed an EC50 of 866 nM.
As for `O=C(Nc1cc2cc(-c3cnco3)ccc2cn1)C1CC1` [Compound 973, N-(6-(Oxazol-5-yl)isoquinolin-3-yl)cyclopropanecarboxamide], the EC50 in assay [1] came out at 391 nM; in assay [2], 102 nM; in the assay on IL-6, 395 nM; in assay [3], 2.9 nM; at recombinant GSK3β kinase it was 20 nM; in assay [4], 609 nM. In assay [5], this compound showed an EC50 of 134 nM.
As to `O=C(Nc1cc2cc(-c3cnco3)ccc2cn1)[C@H]1CCCO1` [Compound 974, (R)—N-(6-(Oxazol-5-yl)isoquinolin-3-yl)tetrahydrofuran-2-carboxamide], the EC50 in assay [1] was 3160 nM; in assay [2] it was 2000 nM; with IL-6 it was > 10000 nM; in assay [3], 13.5 nM; on recombinant GSK3β kinase, 96 nM; in assay [4], 3740 nM. For the same compound, the EC50 in assay [5] is > 10000 nM. In addition, the inhibition at 10 µM turned out to be 45.9% with IL-6 and 49.6% in assay [5].
Turning to `O=C(Nc1cc2cc(-c3cnco3)ccc2cn1)[C@@H]1CCCNC1` [Compound 975, (R)—N-(6-(Oxazol-5-yl)isoquinolin-3-yl)piperidine-3-carboxamide], the EC50 in assay [1] worked out at 334 nM; in assay [2], 4600 nM; in the assay on IL-6, 425 nM; in assay [3], 12 nM; on recombinant GSK3β kinase, 1090 nM; in assay [4] it was 423 nM. Moreover, in assay [5], the EC50 is 138 nM.
On to `O=C(Nc1cc2cc(-c3cnco3)ccc2cn1)C1CCN(C(=O)CN2CCCC2)CC1` [Compound 977, N-(6-(Oxazol-5-yl)isoquinolin-3-yl)-1-(2-(pyrrolidin-1-yl)acetyl)piperidine-4-carboxamide], for which the EC50 stood at 615 nM in assay [1]; 426 nM in assay [2]; 404 nM in the assay on IL-6; 3.2 nM in assay [3]; 246 nM on recombinant GSK3β kinase; 875 nM in assay [4]. Also, the EC50 in assay [5] was found to be 136 nM.
